# Experimental data taken from article PMC10165273, “Itch receptor MRGPRX4 interacts with the receptor activity–modifying proteins” (The Journal of Biological Chemistry, 2023).
# Like-named read-outs stand apart in the source and are kept apart here.
# Molecular target: T1, MRGPRX4 (Homo sapiens, UniProt Q96LA9)
# T1 construct: expressed in transfected cells; host or cells: HEK293T
# Test: IP1 accumulation HTRF assay, MRGPRX4
# Assay type: cell-based
# Conditions: 2 h; for activation at 80 µM: log [agonist] (M) -4.09691; for activation at 16 µM: log [agonist] (M) -4.79588; for activation at 3.2 µM: log [agonist] (M) -5.49485; for activation at 0.64 µM: log [agonist] (M) -6.19382; for activation at 0.128 µM: log [agonist] (M) -6.89279; for activation at 0.0256 µM: log [agonist] (M) -7.59176
# Procedure: HEK293T cells were transfected with 1 pg/cell of MRGPRX4 DNA, and the amount of DNA was kept constant at 2 pg/cell with pcDNA3.1(+) empty vector, unless otherwise specified. Twenty four hours after transfection, IP1 assay was performed as previously described ([51]). When applicable, cells were treated with 1 μM YM254890 (YM) or different concentrations of U73122 for 1 h prior to addition of agonist or buffer. After incubation for 2 h, HTRF reagents and IP1 calibration standards were added and incubated for 2 h in the dark at room temperature. Time-resolved fluorescence signals were read on the BioTek Synergy NEO-TRF Hybrid multi-mode reader (BioTek Instruments). All data were carried out in three independent experiments with three technical replicate each.
# For characterization of the Tet-On Nluc-HT7-MRGPRX4-GFP10-1D4 construct, HEK293T cells were transfected as previously described with some modifications. Dox dose-response of NLuc-HT7-MRGPRX4-GFP10-1D4 DNA titration was assayed by transfecting HEK293T cells with either 1 or 2 pg/cell of NLuc-HT7-MRGPRX4-GFP10-1D4 construct. Receptor expression was induced 4 h after transfection with addition of different concentrations of dox for 20 h. For the RAMP DNA titration assay, cells were cotransfected with a constant amount of 1 pg/cell of NLuc-HT7-MRGPRX4-GFP10-1D4 DNA and 1, 0.75, 0.5, or 0 pg/cell of each HA-RAMP-OLLAS with the homogenous transfection method. Four hours after transfection, receptor expression was induced with addition of 1000 ng/ml dox. Twenty hours after induction, IP1 assay was performed.
# Data reduction, standard calibration, and transformation of HTRF data were performed as previously described ([51]). Normalized IP1 values were calculated relative to the unstimulated mock-transfected cells (set to 0%) and fully stimulated MRGPRX4 (alone if applicable) (set to 100%).
# [1] = SP-FLAG-Nluc-HT7-MRGX4_Tet-GFP10-1D4, read-out: normalized IP1 accumulation
# [2] = SP-FLAG-Nluc-HT7-MRGX4_Tet-GFP10-1D4 no dox, read-out: normalized IP1 accumulation
# T1 sequence (Q96LA9 whole entry): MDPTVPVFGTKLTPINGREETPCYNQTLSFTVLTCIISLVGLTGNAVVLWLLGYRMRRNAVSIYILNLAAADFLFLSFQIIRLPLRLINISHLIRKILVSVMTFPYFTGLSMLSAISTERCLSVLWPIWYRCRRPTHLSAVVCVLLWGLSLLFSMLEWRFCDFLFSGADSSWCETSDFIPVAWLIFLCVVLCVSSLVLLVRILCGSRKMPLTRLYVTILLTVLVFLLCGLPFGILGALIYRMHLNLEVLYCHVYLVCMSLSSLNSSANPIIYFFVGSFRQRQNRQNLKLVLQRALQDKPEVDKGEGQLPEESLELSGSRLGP
smiles,measurement,setting,value
"C[C@H](CCC(=O)O)[C@H]1CC[C@H]2[C@@H]3CC[C@@H]4C[C@H](O)CC[C@]4(C)[C@H]3C[C@H](O)[C@]12C [DCA, deoxycholic acid]",activation at 100 µM,"HA-MRGX4-1D4, log [agonist] (M) -4, read-out: normalized IP1 accumulation",53.9%
same,activation at 20 µM,"HA-MRGX4-1D4, log [agonist] (M) -4.69897, read-out: normalized IP1 accumulation",34.3%
same,activation at 4 µM,"HA-MRGX4-1D4, log [agonist] (M) -5.39794, read-out: normalized IP1 accumulation",19.4%
same,activation at 0.8 µM,"HA-MRGX4-1D4, log [agonist] (M) -6.09691, read-out: normalized IP1 accumulation",12.4%
same,activation at […],"HA-MRGX4-1D4, log [agonist] (M) -6.79588, read-out: normalized IP1 accumulation",11.1%
same,activation at 0.032 µM,"HA-MRGX4-1D4, log [agonist] (M) -7.49485, read-out: normalized IP1 accumulation",11.4%
same,activation at 100 µM,"MRGPRX4: 0.25pg/cell, log [DCA] (M) -4, Fig S1c, read-out: IP1 accumulation",41.7%
same,activation at 20 µM,"MRGPRX4: 0.25pg/cell, log [DCA] (M) -4.69897, Fig S1c, read-out: IP1 accumulation",28.7%
same,activation at 4 µM,"MRGPRX4: 0.25pg/cell, log [DCA] (M) -5.39794, Fig S1c, read-out: IP1 accumulation",10.1%
same,activation at 100 µM,"MRGPRX4: 0.5pg/cell, log [DCA] (M) -4, Fig S1c, read-out: IP1 accumulation",53.6%
same,activation at 20 µM,"MRGPRX4: 0.5pg/cell, log [DCA] (M) -4.69897, Fig S1c, read-out: IP1 accumulation",33.8%
same,activation at 4 µM,"MRGPRX4: 0.5pg/cell, log [DCA] (M) -5.39794, Fig S1c, read-out: IP1 accumulation",14.2%
same,activation at 0.8 µM,"MRGPRX4: 0.5pg/cell, log [DCA] (M) -6.09691, Fig S1c, read-out: IP1 accumulation",7.76%
same,activation at […],"MRGPRX4: 0.5pg/cell, log [DCA] (M) -6.79588, Fig S1c, read-out: IP1 accumulation",7.83%
same,activation at 0.032 µM,"MRGPRX4: 0.5pg/cell, log [DCA] (M) -7.49485, Fig S1c, read-out: IP1 accumulation",6.46%
same,activation at 100 µM,"MRGPRX4: 1pg/cell, log [DCA] (M) -4, Fig S1c, read-out: IP1 accumulation",62.8%
same,activation at 20 µM,"MRGPRX4: 1pg/cell, log [DCA] (M) -4.69897, Fig S1c, read-out: IP1 accumulation",42.9%
same,activation at 4 µM,"MRGPRX4: 1pg/cell, log [DCA] (M) -5.39794, Fig S1c, read-out: IP1 accumulation",19.8%
same,activation at 0.8 µM,"MRGPRX4: 1pg/cell, log [DCA] (M) -6.09691, Fig S1c, read-out: IP1 accumulation",13.1%
same,activation at […],"MRGPRX4: 1pg/cell, log [DCA] (M) -6.79588, Fig S1c, read-out: IP1 accumulation",10.7%
same,activation at 0.032 µM,"MRGPRX4: 1pg/cell, log [DCA] (M) -7.49485, Fig S1c, read-out: IP1 accumulation",8.32%
same,activation at 100 µM,"MRGPRX4: 2pg/cell, log [DCA] (M) -4, Fig S1c, read-out: IP1 accumulation",79.9%
same,activation at 20 µM,"MRGPRX4: 2pg/cell, log [DCA] (M) -4.69897, Fig S1c, read-out: IP1 accumulation",51.7%
same,activation at 4 µM,"MRGPRX4: 2pg/cell, log [DCA] (M) -5.39794, Fig S1c, read-out: IP1 accumulation",26.6%
same,activation at 0.8 µM,"MRGPRX4: 2pg/cell, log [DCA] (M) -6.09691, Fig S1c, read-out: IP1 accumulation",15.7%
same,activation at […],"MRGPRX4: 2pg/cell, log [DCA] (M) -6.79588, Fig S1c, read-out: IP1 accumulation",15.1%
same,activation at 0.032 µM,"MRGPRX4: 2pg/cell, log [DCA] (M) -7.49485, Fig S1c, read-out: IP1 accumulation",14.6%
same,activation at 100 µM,"MRGPRX4: […], log [DCA] (M) -4, Fig S1c, read-out: IP1 accumulation",38.8%
same,activation at 20 µM,"MRGPRX4: […], log [DCA] (M) -4.69897, Fig S1c, read-out: IP1 accumulation",21.2%
same,activation at 4 µM,"MRGPRX4: […], log [DCA] (M) -5.39794, Fig S1c, read-out: IP1 accumulation",7.81%
same,activation at 0.8 µM,"MRGPRX4: […], log [DCA] (M) -6.09691, Fig S1c, read-out: IP1 accumulation",3.51%
same,activation at 0.032 µM,"MRGPRX4: […], log [DCA] (M) -7.49485, Fig S1c, read-out: IP1 accumulation",3.48%
same,activation at 10 µM,"MRGPRX4, DCA 10uM, Fig S1d",28.4%
same,activation at 100 µM,"MRGPRX4, DCA 100uM, Fig S1d, read-out: IP1 accumulation",60.7%
same,activation at 100 µM,"MRGPRX4 alone, log [DCA] (M) -4, Fig S3d-f, read-out: IP1 accumulation",100%
same,activation at 20 µM,"MRGPRX4 alone, log [DCA] (M) -4.69897, Fig S3d-f, read-out: IP1 accumulation",66.8%
same,activation at 4 µM,"MRGPRX4 alone, log [DCA] (M) -5.39794, Fig S3d-f, read-out: IP1 accumulation",36.1%
same,activation at 0.8 µM,"MRGPRX4 alone, log [DCA] (M) -6.09691, Fig S3d-f, read-out: IP1 accumulation",26.3%
same,activation at […],"MRGPRX4 alone, log [DCA] (M) -6.79588, Fig S3d-f, read-out: IP1 accumulation",23.7%
same,activation at 0.032 µM,"MRGPRX4 alone, log [DCA] (M) -7.49485, Fig S3d-f, read-out: IP1 accumulation",21.4%
same,activation at 30 µM,"MRGX4 + DCA, U73122 30uM, Fig S1e",8.48%
same,activation at 30 µM,"MRGX4 + DCA, buffer, Fig S1e",39.2%
same,activation at 100 µM,"MRGX4 + DCA, 100uM, U73122 30uM, Fig S1e, read-out: IP1 accumulation",16.7%
same,activation at 100 µM,"MRGX4 + DCA, 100uM, buffer, Fig S1e, read-out: IP1 accumulation",56.2%
same,activation at 80 µM,[1],38.3%
same,activation at 16 µM,[1],22.2%
same,activation at 3.2 µM,[1],13%
same,activation at 0.64 µM,[1],10.2%
same,activation at 0.128 µM,[1],9.26%
same,activation at 0.0256 µM,[1],9.64%
same,activation at 80 µM,[2],9.13%
same,activation at 16 µM,[2],7.51%
same,activation at 3.2 µM,[2],9.25%
same,activation at 0.64 µM,[2],7.7%
same,activation at 0.128 µM,[2],7.77%
same,activation at 0.0256 µM,[2],7.55%
same,activation at 100 µM,"SP-Flag-MRGX4-1D4, log [agonist] (M) -4, read-out: normalized IP1 accumulation",65.9%
same,activation at 20 µM,"SP-Flag-MRGX4-1D4, log [agonist] (M) -4.69897, read-out: normalized IP1 accumulation",34.9%
same,activation at 0.8 µM,"SP-Flag-MRGX4-1D4, log [agonist] (M) -6.09691, read-out: normalized IP1 accumulation",9.9%
same,activation at […],"SP-Flag-MRGX4-1D4, log [agonist] (M) -6.79588, read-out: normalized IP1 accumulation",8.52%
same,activation at 0.032 µM,"SP-Flag-MRGX4-1D4, log [agonist] (M) -7.49485, read-out: normalized IP1 accumulation",6.84%
same,activation at 100 µM,"SP-Flag-MRGX4-GFP10-1D4, log [agonist] (M) -4, read-out: normalized IP1 accumulation",66.1%
same,activation at 20 µM,"SP-Flag-MRGX4-GFP10-1D4, log [agonist] (M) -4.69897, read-out: normalized IP1 accumulation",33.2%
same,activation at 4 µM,"SP-Flag-MRGX4-GFP10-1D4, log [agonist] (M) -5.39794, read-out: normalized IP1 accumulation",15.5%
same,activation at 0.8 µM,"SP-Flag-MRGX4-GFP10-1D4, log [agonist] (M) -6.09691, read-out: normalized IP1 accumulation",8.34%
same,activation at […],"SP-Flag-MRGX4-GFP10-1D4, log [agonist] (M) -6.79588, read-out: normalized IP1 accumulation",7.34%
same,activation at 0.032 µM,"SP-Flag-MRGX4-GFP10-1D4, log [agonist] (M) -7.49485, read-out: normalized IP1 accumulation",7.17%
same,activation at 100 µM,"log [agonist] (M) -4, MRGX4-transfected, individual replicates, read-out: IP1 accumulation, dose-response (Figure 1a)",67.6%
same,activation at 11.111 µM,"log [agonist] (M) -4.95424, MRGX4-transfected, individual replicates, read-out: IP1 accumulation, dose-response (Figure 1a)",33.9%
same,activation at 1.2346 µM,"log [agonist] (M) -5.90849, MRGX4-transfected, individual replicates, read-out: IP1 accumulation, dose-response (Figure 1a)",14.9%
same,activation at 0.13717 µM,"log [agonist] (M) -6.86273, MRGX4-transfected, individual replicates, read-out: IP1 accumulation, dose-response (Figure 1a)",10.6%
